From ChEMBL document CHEMBL4130416, “Glycine-replaced derivatives of [Pro3,DLeu9]TL, a temporin L analogue: Evaluation of antimicrobial, cytotoxic and hemolytic activities” (Eur J Med Chem, 2017)
In brackets after ≈: the same amount, converted by molar mass. Activity calls are given as the source filed them. The rule behind the calls is not given here. Where a SMILES comes first, the peptide text is derived from it. [ ]: non-standard residue; d: D form.

What was measured:
HaCaT [1] = test: Cytotoxicity against human HaCaT cells at 12.5 uM after 24 hrs by MTT assay relative to control; type: cell-based
Escherichia coli [2] = test: Antimicrobial activity against Escherichia coli D21 after 18 to 20 hrs by microbroth dilution method; type: functional
Candida albicans [3] = test: Antimicrobial activity against Candida albicans ATCC 10231 after 18 to 20 hrs by microbroth dilution method; type: functional
Staphylococcus aureus [4] = test: Antimicrobial activity against Staphylococcus aureus Cowan I after 18 to 20 hrs by microbroth dilution method; type: functional
Acinetobacter baumannii [5] = test: Antimicrobial activity against Acinetobacter baumannii ATCC 19606 after 18 to 20 hrs by microbroth dilution method; type: functional; settings: ATCC 19606 = CIP 70.34 = JCM 6841
HaCaT [6] = test: Cytotoxicity against human HaCaT cells at 50 uM after 24 hrs by MTT assay relative to control; type: cell-based
Pseudomonas aeruginosa [7] = test: Antimicrobial activity against Pseudomonas aeruginosa ATCC 27853 after 18 to 20 hrs by microbroth dilution method; type: functional
[8] = system: Staphylococcus epidermidis; test: Antimicrobial activity against Staphylococcus epidermidis ATCC 12228 after 18 to 20 hrs by microbroth dilution method; type: functional
Pseudomonas syringae = test: Antimicrobial activity against Pseudomonas syringae pv tabaci NCPPB 1918 after 18 to 20 hrs by microbroth dilution method; type: functional, Pseudomonas amygdali pv. tabaci
HaCaT [9] = test: Cytotoxicity against human HaCaT cells at 6.25 uM after 24 hrs by MTT assay relative to control; type: cell-based
Pichia kudriavzevii = test: Antimicrobial activity against Candida krusei ATCC 6258 after 18 to 20 hrs by microbroth dilution method; type: functional
HaCaT [10] = test: Cytotoxicity against human HaCaT cells at 25 uM after 24 hrs by MTT assay relative to control; type: cell-based
Priestia megaterium = test: Antimicrobial activity against Bacillus megaterium Bm11 after 18 to 20 hrs by microbroth dilution method; type: functional
[11] = Hemolytic activity against human erythrocytes at 3.125 uM after 40 mins relative to control; type: ADME, cell-based, Erythrocyte; settings: read-out: Activity
Escherichia coli [12] = test: Antimicrobial activity against multisensitive Escherichia coli clinical isolate 2 after 18 to 20 hrs by microbroth dilution method; type: functional
Candida albicans [13] = test: Antimicrobial activity against Candida albicans clinical isolate 1 after 18 to 20 hrs by microbroth dilution method; type: functional
Klebsiella pneumoniae = test: Antimicrobial activity against multisensitive Klebsiella pneumoniae after 18 to 20 hrs by microbroth dilution method; type: functional
[14] = Hemolytic activity against human erythrocytes at 50 uM after 40 mins relative to control; type: ADME, cell-based, Erythrocyte; settings: read-out: Activity
[15] = Metabolic stability in 90% human serum assessed as parent compound remaining at 0.2 mM after 45 mins by RP-UHPLC analysis; type: ADME, cell-free; settings: read-out: Stability
HaCaT [16] = test: Cytotoxicity against human HaCaT cells at 1.56 to 6.25 uM after 24 hrs by MTT assay; type: cell-based
[17] = Hemolytic activity against human erythrocytes at 25 uM after 40 mins relative to control; type: ADME, cell-based, Erythrocyte; settings: read-out: Activity
Pseudomonas aeruginosa [18] = test: Antimicrobial activity against multisensitive Pseudomonas aeruginosa after 18 to 20 hrs by microbroth dilution method; type: functional
Staphylococcus aureus [19] = test: Antimicrobial activity against methicillin resistant Staphylococcus aureus clinical isolate 1 after 18 to 20 hrs by microbroth dilution method; type: functional
[20] = Hemolytic activity against human erythrocytes at 6.25 uM after 40 mins relative to control; type: ADME, cell-based, Erythrocyte; settings: read-out: Activity
[21] = Hemolytic activity against human erythrocytes at 12.5 uM after 40 mins relative to control; type: ADME, cell-based, Erythrocyte; settings: read-out: Activity
Staphylococcus aureus [22] = test: Antimicrobial activity against methicillin resistant Staphylococcus aureus clinical isolate 2 after 18 to 20 hrs by microbroth dilution method; type: functional
Escherichia coli [23] = test: Antimicrobial activity against multisensitive Escherichia coli clinical isolate 1 after 18 to 20 hrs by microbroth dilution method; type: functional
[24] = Metabolic stability in 90% human serum assessed as parent compound remaining at […] after 120 mins by RP-UHPLC analysis; type: ADME, cell-free; settings: read-out: Stability
Staphylococcus aureus [25] = test: Antimicrobial activity against beta-lactamase resistant Staphylococcus aureus after 18 to 20 hrs by microbroth dilution method; type: functional
Candida albicans [26] = test: Antimicrobial activity against Candida albicans clinical isolate 2 after 18 to 20 hrs by microbroth dilution method; type: functional
Staphylococcus aureus [27] = test: Antimicrobial activity against multisensitive Staphylococcus aureus after 18 to 20 hrs by microbroth dilution method; type: functional
Staphylococcus aureus [28] = test: Antimicrobial activity against macrolid resistant Staphylococcus aureus after 18 to 20 hrs by microbroth dilution method; type: functional
Candida albicans [29] = test: Antimicrobial activity against Candida albicans ATCC 10231 assessed as induction of membrane-perturbation at MIC measured every minute for 10 mins by SYTOX green fluorescence dye influx assay; type: functional, organism-based
[30] = system: Staphylococcus epidermidis; test: Antimicrobial activity against Staphylococcus epidermidis ATCC 12228 assessed as membrane-perturbation measured every minute for 120 mins by SYTOX green fluorescence dye influx assay; type: functional, organism-based
Acinetobacter baumannii [31] = test: Antimicrobial activity against Acinetobacter baumannii ATCC 19606 assessed as induction of membrane-perturbation at MIC measured every minute for 120 mins by SYTOX green fluorescence dye influx assay; type: functional, organism-based; settings: ATCC 19606 = CIP 70.34 = JCM 6841

SMILES | Activity (HaCaT [1]) [%] | MIC (Escherichia coli [2]) [µM] | MIC (Candida albicans [3]) [µM] | MIC (Staphylococcus aureus [4]) [µM] | MIC (Acinetobacter baumannii [5]) [µM] | Activity (HaCaT [6]) [%] | MIC (Pseudomonas aeruginosa [7]) [µM] | MIC [8] [µM] | MIC (Pseudomonas syringae) [µM] | MIC (Pichia kudriavzevii) [µM] | Activity (HaCaT [10]) [%] | MIC (Priestia megaterium) [µM] | hemolysis at 40 min, 3.125 µM [11] [%] | MIC (Escherichia coli [12]) [µM] | MIC (Candida albicans [13]) [µM] | MIC (Klebsiella pneumoniae) [µM] | hemolysis at 40 min, 50 µM [14] [%] | Activity (HaCaT [16]) | hemolysis at 40 min, 25 µM [17] [%] | MIC (Pseudomonas aeruginosa [18]) [µM] | also measured
CCCC[C@@H](NC(=O)[C@@H](CC(C)C)NC(=O)[C@H](Cc1ccccc1)NC(=O)[C@H](CCCCN)NC(=O)[C@H](CO)NC(=O)[C@H](Cc1ccccc1)NC(=O)[C@H](Cc1c[nH]c2ccccc12)NC(=O)[C@@H]1CCCN1C(=O)[C@@H](NC(=O)[C@@H](N)Cc1ccccc1)C(C)C)C(=O)N[C@@H](CCCNC(=N)N)C(=O)NC(C(=O)N[C@@H](CC(C)C)C(N)=O)[C@@H](C)CC (single isomer, unassigned) | 39.96 | 25 (≈ 41.6 µg/mL) | 3.12 (≈ 5.2 µg/mL) | 3.12 (≈ 5.2 µg/mL) | 6.25 (≈ 10.4 µg/mL) | 96.64 | 50 (≈ 83.3 µg/mL) | 3.12 (≈ 5.2 µg/mL) | 3.12 (≈ 5.2 µg/mL) | 1.56 (≈ 2.6 µg/mL) | 72.81 | 1.56 (≈ 2.6 µg/mL) |  |  |  |  |  |  |  |  | Activity (HaCaT [9]): 15%
CC[C@H](C)[C@H](NC(=O)[C@H](CCCNC(=N)N)NC(=O)CNC(=O)[C@@H](CC(C)C)NC(=O)[C@H](Cc1ccccc1)NC(=O)[C@H](CCCCN)NC(=O)[C@H](CO)NC(=O)[C@H](Cc1ccccc1)NC(=O)[C@H](Cc1c[nH]c2ccccc12)NC(=O)[C@@H]1CCCN1C(=O)[C@@H](NC(=O)[C@@H](N)Cc1ccccc1)C(C)C)C(=O)N[C@@H](CC(C)C)C(N)=O (H-FVPWFSKF[dL]GRIL-NH2) | 20.63 | 12.5 (≈ 20.1 µg/mL) | 3.12 (≈ 5.03 µg/mL) | 12.5 (≈ 20.1 µg/mL) | 12.5 (≈ 20.1 µg/mL) | 91.58 | 50 (≈ 80.4 µg/mL) | 6.25 (≈ 10.1 µg/mL) | 12.5 (≈ 20.1 µg/mL) | 3.12 (≈ 5.03 µg/mL) | 57.52 | 3.12 (≈ 5.03 µg/mL) | 1 | 50 (≈ 80.4 µg/mL) | 25 (≈ 40.2 µg/mL) | > 50 | 21 | Non-Toxic | 7 | > 50 | remaining at 0.75 h, 200 µM [15]: 45%; MIC (Staphylococcus aureus [19]): 12.5 µM (≈ 20.1 µg/mL); hemolysis at 40 min, 6.25 µM [20]: 3%; hemolysis at 40 min, 12.5 µM [21]: 6%; MIC (Staphylococcus aureus [22]): 12.5 µM (≈ 20.1 µg/mL); MIC (Escherichia coli [23]): 50 µM (≈ 80.4 µg/mL); remaining at 2 h [24]: 20%; MIC (Staphylococcus aureus [25]): 12.5 µM (≈ 20.1 µg/mL); MIC (Candida albicans [26]): 25 µM (≈ 40.2 µg/mL); MIC (Staphylococcus aureus [27]): 12.5 µM (≈ 20.1 µg/mL); MIC (Staphylococcus aureus [28]): 12.5 µM (≈ 20.1 µg/mL)
CC[C@H](C)C(NC(=O)[C@H](CCCNC(=N)N)NC(=O)[C@@H](CCCCN)NC(=O)[C@@H](CC(C)C)NC(=O)[C@H](Cc1ccccc1)NC(=O)[C@H](CCCCN)NC(=O)[C@H](CO)NC(=O)[C@H](Cc1ccccc1)NC(=O)[C@H](Cc1c[nH]c2ccccc12)NC(=O)[C@@H]1CCCN1C(=O)[C@@H](NC(=O)[C@@H](N)Cc1ccccc1)C(C)C)C(=O)N[C@@H](CC(C)C)C(N)=O (single isomer, unassigned) | 0 | 12.5 (≈ 21 µg/mL) | 1.56 (≈ 2.62 µg/mL) | 12.5 (≈ 21 µg/mL) | 6.25 (≈ 10.5 µg/mL) | 87.9 | 12.5 (≈ 21 µg/mL) | 3.12 (≈ 5.25 µg/mL) | 12.5 (≈ 21 µg/mL) | 1.56 (≈ 2.62 µg/mL) | 28.22 | 3.12 (≈ 5.25 µg/mL) | 0 | 25 (≈ 42 µg/mL) | 12.5 (≈ 21 µg/mL) | 50 (≈ 84 µg/mL) | 7 | Non-Toxic | 5 | > 50 | Activity (Candida albicans [29]): Active; Activity [30]: Active; MIC (Staphylococcus aureus [19]): 25 µM (≈ 42 µg/mL); hemolysis at 40 min, 6.25 µM [20]: 1%; hemolysis at 40 min, 12.5 µM [21]: 5%; MIC (Staphylococcus aureus [22]): 12.5 µM (≈ 21 µg/mL); MIC (Escherichia coli [23]): 25 µM (≈ 42 µg/mL); remaining at 2 h [24]: 40%; MIC (Staphylococcus aureus [25]): 25 µM (≈ 42 µg/mL); Activity (Acinetobacter baumannii [31]): Active; MIC (Candida albicans [26]): 12.5 µM (≈ 21 µg/mL); MIC (Staphylococcus aureus [27]): 12.5 µM (≈ 21 µg/mL); MIC (Staphylococcus aureus [28]): 25 µM (≈ 42 µg/mL)
